# Assay results published in ChEMBL document CHEMBL1201862, “PubChem BioAssay data set” (2004).
#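 1) Cells in 96-well plates. 2) Compound, 48 h, 5 concentrations. 3) Linear interpolation between surrounding doses. 4) Unreached endpoint = highest concentration. The concentration for 50% growth inhibition is given as GI50.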 The source made the active and inactive calls. Rule as the data show it: active = GI50 up to about 1.1 µM and inactive = higher.
# Experiments:
# Assay in all cases: growth of human tumour cells (NCI), 48 h
# 786-0 = system: 786-0
# A498 = system: A498
# A549 = system: A549
# ACHN = system: ACHN
# CAKI-1 = system: CAKI-1
# CCRF-CEM = system: CCRF-CEM
# COLO 205 = system: COLO 205
# DLD-1 = system: DLD-1
# DMS-114 = system: DMS-114
# DMS-273 = system: DMS-273
# EKVX = system: EKVX
# HCC 2998 = system: HCC 2998
# HCT-116 = system: HCT-116
# HCT-15 = system: HCT-15
# HL-60 = system: HL-60
# HOP-18 = system: HOP-18
# HOP-62 = system: HOP-62
# HOP-92 = system: HOP-92
# HT-29 = system: HT-29
# IGROV-1 = system: IGROV-1
# K562 = system: K562
# KM-20L2 = system: KM-20L2
# KM12 = system: KM12
# LOX IMVI = system: LOX IMVI
# LXFL 529 = system: LXFL 529
# M14 = system: M14
# M19-MEL = system: M19-MEL
# MOLT-4 = system: MOLT-4
# Malme-3M = system: Malme-3M
# NCI-H226 = system: NCI-H226
# NCI-H23 = system: NCI-H23
# NCI-H460 = system: NCI-H460
# NCI-H522 = system: NCI-H522
# OVCAR-3 = system: OVCAR-3
# OVCAR-4 = system: OVCAR-4
# OVCAR-5 = system: OVCAR-5
# OVCAR-8 = system: OVCAR-8
# RPMI-8226 = system: RPMI-8226
# RXF 393 = system: RXF 393
# SF-268 = system: SF-268
# SF-295 = system: SF-295
# SF-539 = system: SF-539
# SK-MEL-28 = system: SK-MEL-28
# SK-MEL-2 = system: SK-MEL-2
# SK-MEL-5 = system: SK-MEL-5
# SK-OV-3 = system: SK-OV-3
# SN12C = system: SN12C
# SNB-19 = system: SNB-19
# SNB-75 = system: SNB-75
# SNB-78 = system: SNB-78
# SR = system: SR
# SW-620 = system: SW-620
# TK-10 = system: TK-10
# U-251 = system: U-251
# UACC-257 = system: UACC-257
# UACC-62 = system: UACC-62
# UO-31 = system: UO-31
smiles,measurement,setting,value
O=Cc1cc2c(cc1-c1cc3c(cc1C=O)OCO3)OCO2,GI50,786-0,> 100 µM (inactive)
same,GI50,A498,> 100 µM (inactive)
same,GI50,A549,50.4 µM (inactive)
same,GI50,ACHN,71.8 µM (inactive)
same,GI50,CAKI-1,66.2 µM (inactive)
same,GI50,CCRF-CEM,23.4 µM (inactive)
same,GI50,COLO 205,39.5 µM (inactive)
same,GI50,DLD-1,50.4 µM (inactive)
same,GI50,DMS-114,> 100 µM (inactive)
same,GI50,DMS-273,64.3 µM (inactive)
same,GI50,EKVX,> 100 µM (inactive)
same,GI50,HCC 2998,> 100 µM (inactive)
same,GI50,HCT-116,58.7 µM (inactive)
same,GI50,HCT-15,70.3 µM
same,GI50,HL-60,34.1 µM (inactive)
same,GI50,HOP-18,> 100 µM (inactive)
same,GI50,HOP-62,> 100 µM (inactive)
same,GI50,HOP-92,> 100 µM (inactive)
same,GI50,HT-29,90.2 µM (inactive)
same,GI50,IGROV-1,> 100 µM (inactive)
same,GI50,K562,30.8 µM (inactive)
same,GI50,KM-20L2,> 100 µM (inactive)
same,GI50,KM12,83 µM (inactive)
same,GI50,LOX IMVI,23.3 µM (inactive)
same,GI50,LXFL 529,> 100 µM (inactive)
same,GI50,M14,> 100 µM (inactive)
same,GI50,M19-MEL,56.8 µM (inactive)
same,GI50,MOLT-4,45.5 µM (inactive)
same,GI50,Malme-3M,> 100 µM (inactive)
same,GI50,NCI-H226,> 100 µM (inactive)
same,GI50,NCI-H23,72.4 µM (inactive)
same,GI50,NCI-H460,> 100 µM (inactive)
same,GI50,NCI-H522,64.1 µM (inactive)
same,GI50,OVCAR-3,55.6 µM (inactive)
same,GI50,OVCAR-4,> 100 µM (inactive)
same,GI50,OVCAR-5,> 100 µM (inactive)
same,GI50,OVCAR-8,> 100 µM (inactive)
same,GI50,RPMI-8226,30.3 µM (inactive)
same,GI50,RXF 393,37.3 µM (inactive)
same,GI50,SF-268,> 100 µM (inactive)
same,GI50,SF-295,> 100 µM (inactive)
same,GI50,SF-539,> 100 µM (inactive)
same,GI50,SK-MEL-28,95.1 µM (inactive)
same,GI50,SK-MEL-2,> 100 µM (inactive)
same,GI50,SK-MEL-5,> 100 µM (inactive)
same,GI50,SK-OV-3,> 100 µM (inactive)
same,GI50,SN12C,> 100 µM (inactive)
same,GI50,SNB-19,87.9 µM (inactive)
same,GI50,SNB-75,> 100 µM (inactive)
same,GI50,SNB-78,> 100 µM (inactive)
same,GI50,SR,21 µM (inactive)
same,GI50,SW-620,55.8 µM (inactive)
same,GI50,TK-10,> 100 µM (inactive)
same,GI50,U-251,> 100 µM (inactive)
same,GI50,UACC-257,> 100 µM (inactive)
same,GI50,UACC-62,> 100 µM (inactive)
same,GI50,UO-31,71.6 µM (inactive)
COc1ccc2c(=O)oc3c(OC)cc(CCN(C)C)c4c(=O)oc1c2c34,GI50,A498,20.5 µM (inactive)
same,GI50,CCRF-CEM,1.49 µM (inactive)
same,GI50,COLO 205,4.94 µM (inactive)
same,GI50,DLD-1,22.8 µM (inactive)
same,GI50,DMS-114,12.1 µM (inactive)
same,GI50,DMS-273,15.6 µM (inactive)
same,GI50,HCC 2998,12.4 µM (inactive)
same,GI50,HOP-18,14.4 µM (inactive)
same,GI50,HOP-62,14.2 µM (inactive)
same,GI50,K562,2.56 µM (inactive)
same,GI50,KM-20L2,14.9 µM (inactive)
same,GI50,LXFL 529,13.3 µM (inactive)
same,GI50,M14,17.4 µM (inactive)
same,GI50,M19-MEL,14.5 µM (inactive)
same,GI50,MOLT-4,11.5 µM (inactive)
same,GI50,Malme-3M,14.5 µM (inactive)
same,GI50,NCI-H226,17.9 µM (inactive)
same,GI50,NCI-H23,17.8 µM (inactive)
same,GI50,NCI-H522,12.5 µM (inactive)
same,GI50,OVCAR-3,16.1 µM (inactive)
same,GI50,OVCAR-5,17.9 µM (inactive)
same,GI50,OVCAR-8,10.4 µM (inactive)
same,GI50,SF-268,12.9 µM (inactive)
same,GI50,SK-MEL-2,17.7 µM (inactive)
same,GI50,SK-MEL-5,12.3 µM (inactive)
same,GI50,SN12C,13.8 µM (inactive)
same,GI50,SNB-19,14.3 µM (inactive)
same,GI50,SNB-78,14.3 µM (inactive)
same,GI50,U-251,14.4 µM (inactive)
same,GI50,UACC-62,17.9 µM (inactive)
O=C1CCCC/C1=C\c1ccc(Cl)c(Cl)c1,GI50,786-0,> 10 µM (inactive)
same,GI50,A498,58.5 µM (inactive)
same,GI50,A549,34.4 µM (inactive)
same,GI50,ACHN,18.3 µM (inactive)
same,GI50,CAKI-1,19.2 µM (inactive)
same,GI50,CCRF-CEM,21.3 µM (inactive)
same,GI50,COLO 205,35.1 µM (inactive)
same,GI50,DLD-1,23.2 µM (inactive)
same,GI50,DMS-114,18.7 µM (inactive)
same,GI50,DMS-273,20 µM (inactive)
same,GI50,EKVX,45.7 µM (inactive)
same,GI50,HCC 2998,21.7 µM (inactive)
same,GI50,HCT-116,17.1 µM (inactive)
same,GI50,HCT-15,19.1 µM
same,GI50,HL-60,19 µM (inactive)
same,GI50,HOP-18,18.8 µM (inactive)
same,GI50,HOP-62,57.7 µM (inactive)
same,GI50,HT-29,22.3 µM (inactive)
same,GI50,IGROV-1,25.2 µM (inactive)
same,GI50,K562,18.9 µM (inactive)
same,GI50,KM-20L2,20.7 µM (inactive)
same,GI50,LOX IMVI,18 µM (inactive)
same,GI50,LXFL 529,17.1 µM (inactive)
same,GI50,M14,19.9 µM (inactive)
same,GI50,M19-MEL,20.7 µM (inactive)
same,GI50,MOLT-4,18.1 µM (inactive)
same,GI50,NCI-H23,23.3 µM (inactive)
same,GI50,NCI-H460,20.1 µM (inactive)
same,GI50,OVCAR-4,18.2 µM (inactive)
same,GI50,OVCAR-8,23.6 µM (inactive)
same,GI50,SF-268,23.3 µM (inactive)
same,GI50,SF-539,17.2 µM (inactive)
same,GI50,SK-MEL-28,19.1 µM (inactive)
same,GI50,SK-MEL-5,17.2 µM (inactive)
same,GI50,SK-OV-3,45.8 µM (inactive)
same,GI50,SN12C,16.6 µM (inactive)
same,GI50,SNB-19,25.8 µM (inactive)
same,GI50,SNB-75,16.3 µM (inactive)
same,GI50,SNB-78,19.1 µM (inactive)
same,GI50,SW-620,21.6 µM (inactive)
same,GI50,TK-10,17 µM (inactive)
same,GI50,U-251,16.6 µM (inactive)
same,GI50,UACC-62,23.4 µM (inactive)
same,GI50,UO-31,17.8 µM (inactive)
CN/N=C(\C(=O)Nc1ccc([N+](=O)[O-])cc1[N+](=O)[O-])C1NC(=O)NC1=O (configuration not stated),GI50,786-0,> 100 µM (inactive)
same,GI50,A498,> 100 µM (inactive)
same,GI50,A549,> 100 µM (inactive)
same,GI50,ACHN,> 100 µM (inactive)
same,GI50,CAKI-1,> 100 µM (inactive)
same,GI50,CCRF-CEM,> 100 µM (inactive)
same,GI50,COLO 205,> 100 µM (inactive)
same,GI50,DLD-1,> 100 µM (inactive)
same,GI50,DMS-114,> 100 µM (inactive)
same,GI50,DMS-273,32.2 µM (inactive)
same,GI50,EKVX,> 100 µM (inactive)
same,GI50,HCC 2998,> 100 µM (inactive)
same,GI50,HCT-116,> 100 µM (inactive)
same,GI50,HCT-15,> 100 µM
same,GI50,HL-60,> 100 µM (inactive)
same,GI50,HOP-18,> 100 µM (inactive)
same,GI50,HOP-62,> 100 µM (inactive)
same,GI50,HOP-92,> 100 µM (inactive)
same,GI50,HT-29,80.5 µM (inactive)
same,GI50,IGROV-1,> 100 µM (inactive)
same,GI50,K562,> 100 µM (inactive)
same,GI50,KM-20L2,> 100 µM (inactive)
same,GI50,KM12,> 100 µM (inactive)
same,GI50,LOX IMVI,38.1 µM (inactive)
same,GI50,LXFL 529,> 100 µM (inactive)
same,GI50,M14,> 100 µM (inactive)
same,GI50,M19-MEL,> 100 µM (inactive)
same,GI50,MOLT-4,> 100 µM (inactive)
same,GI50,Malme-3M,> 100 µM (inactive)
same,GI50,NCI-H226,> 100 µM (inactive)
same,GI50,NCI-H23,> 100 µM (inactive)
same,GI50,NCI-H460,> 100 µM (inactive)
same,GI50,OVCAR-3,> 100 µM (inactive)
same,GI50,OVCAR-4,> 100 µM (inactive)
same,GI50,OVCAR-5,> 100 µM (inactive)
same,GI50,OVCAR-8,> 100 µM (inactive)
same,GI50,RPMI-8226,> 100 µM (inactive)
same,GI50,RXF 393,> 100 µM (inactive)
same,GI50,SF-268,> 100 µM (inactive)
same,GI50,SF-295,> 100 µM (inactive)
same,GI50,SF-539,> 100 µM (inactive)
same,GI50,SK-MEL-28,> 100 µM (inactive)
same,GI50,SK-MEL-2,> 100 µM (inactive)
same,GI50,SK-MEL-5,> 100 µM (inactive)
same,GI50,SK-OV-3,> 100 µM (inactive)
same,GI50,SN12C,> 100 µM (inactive)
same,GI50,SNB-19,> 100 µM (inactive)
same,GI50,SNB-75,> 100 µM (inactive)
same,GI50,SNB-78,> 100 µM (inactive)
same,GI50,SR,> 100 µM (inactive)
same,GI50,SW-620,40.3 µM (inactive)
same,GI50,TK-10,> 100 µM (inactive)
same,GI50,U-251,27.9 µM (inactive)
same,GI50,UACC-257,> 100 µM (inactive)
same,GI50,UACC-62,> 100 µM (inactive)
same,GI50,UO-31,> 100 µM (inactive)
